# According to publication PMC7407272, “Induction of Lysosome Membrane Permeabilization as a Therapeutic Strategy to Target Pancreatic Cancer Stem Cells” (Cancers, 2020):
# Experiments:
# [1] = mESC viability (MTS) screen and dose response; type: cell-based, mouse; details: mouse, mouse embryonic stem cells (mESCs), 5 µM, MTS
# Experimental: (§1) Mouse embryonic stem cells were cultured in Dulbecco’s Modified Eagle Medium (DMEM) containing 15% Fetal bovine serum (FBS), non-essential amino acids (NEAA), 2-mercaptoethanol, and Leukemia inhibitory factor (LIF) and passaged on gelatinized plates under standard conditions.
# (§2) Murine embryonic stem cells (mESCs) were plated at 20,000 cells per well in gelatinized 96 well plates. Compounds from the 640 compound ETP library were added by a Beckman FX 96 tip to achieve a final concentration of 5 µM in each well, and each compound was tested in duplicate. Cells were treated for a total of 30 h prior to assessing cell viability using CellTiter 96® AQueous One Solution Cell Proliferation Assay (MTS) assay according to manufacturer’s instructions (G3582, Promega, Madison, WI, USA). Dose response curves were carried out on mESCs under the same conditions using indicated compounds. To test the viability of CSCs, 10,000 PDAC cells were plated in spheroid conditions and immediately treated with indicated compounds and concentrations for the duration of the sphere formation assay. For adherent non-CSCs, 20,000 cells were plated in wells of standard tissue culture-treated plates (Corning, Corning, NY, USA) and treated the following day with indicated compounds and concentrations. For re-plated spheres (Figure S1B), 7-day-old spheres were filtered using a 40 µM filter (Fisher Scientific, Hampton, NH, USA), washed once with 1× PBS, and incubated with trypsin 0.05% EDTA at 37 °C (Thermo Fisher Scientific, Waltham, MA, USA) to achieve a single cell suspension (approximately 10–30 min, depending on the PDAC culture). Trypsinized cells were counted and 20,000 cells were plated in wells of standard tissue culture-treated plates (Corning) and treated the following day with indicated compounds and concentrations.
# [2] = test system: mouse embryonic stem cells (mESCs); assay: mESC viability (MTS) screen and dose response; type: cell-based; details: Mus musculus, Embryonic stem cell, 30 h
# Experimental: as §1, §2
# [3] = test system: sphere-derived PDAC2 cells; assay: Tumor initiating capacity of pre-treated cells injected subcutaneously; type: in vivo, NU-Foxn1nu nude mice; details: cells treated 3 days with 0.1 µg/mL GEM or compound at 1.25 µM, then injected subcutaneously
# Experimental: Female 6- to 8-week-old NU-Foxn1nu nude mice (Envigo, Spain) were subcutaneously injected with control or pre-treated 1 × 10^4 PDAC cells in 50 µL of Matrigel^TM (Corning). Tumor growth was monitored bi-weekly for up to 10 weeks. For Siramesine experiments, mice were subcutaneously implanted with PDAC1 and PDAC3 PDXs. After 4 weeks of tumor growth, mice were randomized into treatment groups (5 mice per group). Mice were treated with Siramesine twice a week (30 mg/kg by oral gavage formulated in 0.5% methylcellulose 15 cP in 0.9% NaCl solution) for ~4 weeks. Gemcitabine (GEMZAR®, Eli Lilly, Indianapolis, IN, USA) was administered twice a week (125 mg/kg i.p.) for ~4 weeks. Tumor volumes (mm^3) were determined twice per week using a digital caliper. Mice were sacrificed at 24 days post treatment initiation and tumors were extracted and analyzed by flow cytometry as described above. For second generation tumor formation, 1000 and 100 cells of indicated treatment groups were resuspended in Matrigel ^TM and injected subcutaneously in recipient NU-Foxn1nu nude mice and tumor formation was monitored for 10 weeks. Mice were housed according to institutional guidelines and all experiments were performed in compliance with the institutional guidelines for the welfare of experimental animals approved by the Universidad Autónoma de Madrid Ethics Committee (CEI 60-1057-A068) or by the Instituto de Salud Carlos III Ethics Committee (CBA12_2014-v3) and La Comunidad de Madrid (PROEX 335/14 or PROEX 53/14) and in accordance with the guidelines for Ethical Conduct in the Care and Use of Animals as stated in The International Guiding Principles for Biomedical Research involving Animals, developed by the Council for International Organizations of Medical Sciences (CIOMS).
# FGFR4 = target: T1, FGFR4 (Homo sapiens, UniProt P22455); assay: KINOMEscan; type: binding; details: read-out: % Ctrl
# T1 construct: purchased DiscoveRx KINOMEscan
# T1 sequence (P22455 22-802): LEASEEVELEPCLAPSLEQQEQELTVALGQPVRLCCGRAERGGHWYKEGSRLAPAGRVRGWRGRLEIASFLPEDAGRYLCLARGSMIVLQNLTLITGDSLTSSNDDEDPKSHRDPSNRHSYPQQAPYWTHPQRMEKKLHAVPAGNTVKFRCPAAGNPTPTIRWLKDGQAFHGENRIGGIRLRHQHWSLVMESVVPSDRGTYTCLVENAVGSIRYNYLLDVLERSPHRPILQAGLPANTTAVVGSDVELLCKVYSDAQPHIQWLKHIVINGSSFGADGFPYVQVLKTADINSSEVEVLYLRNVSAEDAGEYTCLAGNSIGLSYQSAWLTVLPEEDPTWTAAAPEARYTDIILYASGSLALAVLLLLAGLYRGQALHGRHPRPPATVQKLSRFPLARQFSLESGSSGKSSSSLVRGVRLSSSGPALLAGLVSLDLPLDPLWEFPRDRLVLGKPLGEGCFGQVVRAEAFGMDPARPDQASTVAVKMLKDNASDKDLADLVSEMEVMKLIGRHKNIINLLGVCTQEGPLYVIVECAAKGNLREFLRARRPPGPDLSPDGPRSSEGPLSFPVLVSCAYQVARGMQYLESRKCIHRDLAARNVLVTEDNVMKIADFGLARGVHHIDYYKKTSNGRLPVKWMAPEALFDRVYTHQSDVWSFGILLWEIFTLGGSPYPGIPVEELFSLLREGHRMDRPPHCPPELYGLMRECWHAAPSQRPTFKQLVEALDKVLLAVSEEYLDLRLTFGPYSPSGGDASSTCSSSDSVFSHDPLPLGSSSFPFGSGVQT
# RSK2(KD2-C-t.) = target: T2, RSK2(KD2-C-t.) (Homo sapiens, UniProt P51812); assay: KINOMEscan; type: binding; details: read-out: % Ctrl
# T2 construct: RSK2(KD2-C-t.); purchased DiscoveRx KINOMEscan
# T2 sequence (P51812 398-740 limits assumed): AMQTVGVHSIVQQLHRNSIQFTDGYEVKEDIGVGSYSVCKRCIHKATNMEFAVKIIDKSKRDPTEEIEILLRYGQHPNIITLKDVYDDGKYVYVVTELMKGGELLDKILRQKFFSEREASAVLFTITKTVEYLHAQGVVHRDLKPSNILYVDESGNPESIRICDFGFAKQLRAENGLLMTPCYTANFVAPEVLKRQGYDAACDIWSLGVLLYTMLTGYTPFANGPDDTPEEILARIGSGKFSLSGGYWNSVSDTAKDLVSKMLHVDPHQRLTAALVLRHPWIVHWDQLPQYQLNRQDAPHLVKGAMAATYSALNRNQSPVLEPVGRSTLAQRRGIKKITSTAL
# NEK7 = target: T3, NEK7 (Homo sapiens, UniProt Q8TDX7); assay: KINOMEscan; type: binding; details: read-out: % Ctrl
# T3 construct: purchased DiscoveRx KINOMEscan
# T3 sequence (Q8TDX7 whole entry): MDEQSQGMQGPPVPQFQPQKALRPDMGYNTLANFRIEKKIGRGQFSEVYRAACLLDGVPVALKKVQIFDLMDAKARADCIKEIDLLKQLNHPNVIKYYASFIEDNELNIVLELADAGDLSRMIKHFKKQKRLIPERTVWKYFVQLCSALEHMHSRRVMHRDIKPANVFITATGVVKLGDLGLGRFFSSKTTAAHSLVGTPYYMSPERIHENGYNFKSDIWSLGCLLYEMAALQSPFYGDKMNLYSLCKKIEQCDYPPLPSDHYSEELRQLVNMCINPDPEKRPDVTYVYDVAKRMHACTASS
# EIF2AK1 = target: T4, EIF2AK1 (Homo sapiens, UniProt Q9BQI3); assay: KINOMEscan; type: binding; details: read-out: % Ctrl
# T4 construct: purchased DiscoveRx KINOMEscan
# T4 sequence (Q9BQI3 whole entry): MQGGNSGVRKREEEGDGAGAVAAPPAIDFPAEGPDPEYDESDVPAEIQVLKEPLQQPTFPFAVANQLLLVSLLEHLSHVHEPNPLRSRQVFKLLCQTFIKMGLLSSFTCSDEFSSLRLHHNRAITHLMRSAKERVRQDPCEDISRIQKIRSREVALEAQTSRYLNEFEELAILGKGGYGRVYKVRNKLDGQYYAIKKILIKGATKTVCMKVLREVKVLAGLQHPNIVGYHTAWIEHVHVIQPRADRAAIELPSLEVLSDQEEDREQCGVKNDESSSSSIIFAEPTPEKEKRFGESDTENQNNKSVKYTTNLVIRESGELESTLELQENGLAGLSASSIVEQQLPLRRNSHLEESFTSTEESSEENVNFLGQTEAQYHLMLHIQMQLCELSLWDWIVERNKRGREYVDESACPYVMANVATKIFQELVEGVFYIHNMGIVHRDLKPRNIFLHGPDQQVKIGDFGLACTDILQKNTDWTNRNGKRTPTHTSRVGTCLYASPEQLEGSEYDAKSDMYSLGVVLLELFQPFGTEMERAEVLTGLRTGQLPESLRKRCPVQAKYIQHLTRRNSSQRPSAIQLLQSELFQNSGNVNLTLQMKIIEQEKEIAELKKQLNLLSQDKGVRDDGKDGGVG
# NIK = target: T5, NIK (Homo sapiens, UniProt Q99558); assay: KINOMEscan; type: binding; details: read-out: % Ctrl
# T5 construct: purchased DiscoveRx KINOMEscan
# T5 sequence (Q99558 whole entry): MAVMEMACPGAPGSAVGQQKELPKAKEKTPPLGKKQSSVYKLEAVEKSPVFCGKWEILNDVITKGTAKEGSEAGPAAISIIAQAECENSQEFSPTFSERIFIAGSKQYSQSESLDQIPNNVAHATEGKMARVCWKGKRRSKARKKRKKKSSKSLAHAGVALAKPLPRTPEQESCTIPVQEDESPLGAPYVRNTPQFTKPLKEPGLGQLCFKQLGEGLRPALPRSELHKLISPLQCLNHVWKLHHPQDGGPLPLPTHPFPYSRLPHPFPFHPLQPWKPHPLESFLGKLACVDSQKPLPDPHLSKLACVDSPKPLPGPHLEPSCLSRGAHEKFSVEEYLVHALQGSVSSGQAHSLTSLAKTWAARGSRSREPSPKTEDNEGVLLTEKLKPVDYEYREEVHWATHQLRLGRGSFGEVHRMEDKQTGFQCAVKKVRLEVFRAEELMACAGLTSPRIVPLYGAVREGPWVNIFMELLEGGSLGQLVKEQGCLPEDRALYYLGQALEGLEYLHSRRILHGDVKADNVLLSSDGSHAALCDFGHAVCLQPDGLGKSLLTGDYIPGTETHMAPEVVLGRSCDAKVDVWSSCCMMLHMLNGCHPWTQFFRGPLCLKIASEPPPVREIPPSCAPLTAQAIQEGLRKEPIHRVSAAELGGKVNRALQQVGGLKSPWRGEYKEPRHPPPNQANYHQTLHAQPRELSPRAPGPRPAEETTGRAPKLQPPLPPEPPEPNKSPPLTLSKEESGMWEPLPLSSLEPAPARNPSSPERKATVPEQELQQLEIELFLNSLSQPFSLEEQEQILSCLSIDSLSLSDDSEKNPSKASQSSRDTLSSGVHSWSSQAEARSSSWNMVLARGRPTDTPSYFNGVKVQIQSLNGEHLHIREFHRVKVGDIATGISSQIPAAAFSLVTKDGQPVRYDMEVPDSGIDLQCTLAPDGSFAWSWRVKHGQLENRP
# FLT3(D835V) = target: T6, FLT3(D835V) (Homo sapiens, UniProt P36888, D835V); assay: KINOMEscan; type: binding; details: read-out: % Ctrl
# T6 construct: purchased DiscoveRx KINOMEscan
# re-plated PDAC2 spheres = assay: Acridine orange lysosomal integrity assay; type: cell-based, human
# Experimental: Cells were analyzed with a 4-laser Attune NxT Acoustic Cytometer (ThermoFisher Scientific). […] Autofluorescent cells were excited with blue laser 488nm and selected as the intersection with the filters 530/40 and 580/30 as previously described. For lysosomes quantification, Acridine Orange (AO) (A1301, Thermo Fisher Scientific, Waltham, MA, USA) or Lysotracker Deep Red (DR) (L12492, Molecular probes, Life Technologies, Waltham, MA, USA) were used. […] Bafilomycin A1 (100 nM, Calbiochem, San Diego, CA, USA) was included as a positive control for lysosome disruption. For Annexin V staining, floating and attached cells were pooled and resuspended in 1× AnnexinV staining buffer containing AnnexinV-APC diluted 1:20 (Biotium, Freemont, CA, USA) and incubated for 20 min at room temperature prior to flow cytometric analysis. For all assays, DAPI was used to mark and exclude dead cells, and data were analyzed using the software FlowJo v9.3 (Tree Star Inc., Ashland, OR, USA).
# Re-plated spheres were loaded with 1 µg/mL acridine orange (A1301, Thermo Fisher Scientific) for 15 min then washed 3 times with PBS. […]
# BMX = target: T7, BMX (Homo sapiens, UniProt P51813); assay: KINOMEscan; type: binding; details: read-out: % Ctrl
# T7 construct: purchased DiscoveRx KINOMEscan
# T7 sequence (P51813 whole entry): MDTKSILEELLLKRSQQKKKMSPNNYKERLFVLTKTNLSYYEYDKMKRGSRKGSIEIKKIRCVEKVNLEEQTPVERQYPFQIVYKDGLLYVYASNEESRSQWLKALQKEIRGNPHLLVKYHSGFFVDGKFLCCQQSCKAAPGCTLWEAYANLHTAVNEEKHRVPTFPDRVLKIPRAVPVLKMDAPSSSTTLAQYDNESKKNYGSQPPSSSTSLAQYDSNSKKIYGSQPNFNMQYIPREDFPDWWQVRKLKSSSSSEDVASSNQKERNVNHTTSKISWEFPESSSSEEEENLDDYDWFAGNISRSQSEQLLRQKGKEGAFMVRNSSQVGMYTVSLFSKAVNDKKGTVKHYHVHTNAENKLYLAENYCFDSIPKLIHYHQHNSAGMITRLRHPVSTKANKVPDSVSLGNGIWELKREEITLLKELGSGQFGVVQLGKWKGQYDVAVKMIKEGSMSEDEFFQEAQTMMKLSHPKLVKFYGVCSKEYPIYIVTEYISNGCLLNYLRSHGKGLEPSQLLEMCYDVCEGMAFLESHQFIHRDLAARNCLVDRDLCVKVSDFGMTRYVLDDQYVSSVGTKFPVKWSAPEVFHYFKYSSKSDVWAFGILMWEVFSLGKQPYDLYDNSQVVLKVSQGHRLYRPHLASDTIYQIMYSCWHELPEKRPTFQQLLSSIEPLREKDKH
Compound,"viability at 30 h, 5 µM [1]",EC50 [2],tumor formation / growth from pre-treated cells [3],remaining binding at 1 µM (FGFR4),remaining binding at 1 µM (RSK2(KD2-C-t.)),remaining binding at 1 µM (NEK7),remaining binding at 1 µM (EIF2AK1),remaining binding at 1 µM (NIK),remaining binding at 1 µM (FLT3(D835V)),"Acridine Orange staining (LMP), fluorescence microscopy (re-plated PDAC2 spheres; 5 µM, 2 h)","AO mean far-red fluorescence intensity (MFI), flow cytometry (re-plated PDAC2 spheres; 1.25, 2.5 or 5 µM, 6 h and 24 h)",remaining binding at 1 µM (BMX)
COc1nc2ccc(NCC3CCN(C)CC3)nn2c1C(=O)Nc1cccc(OC(F)(F)F)c1 [Cpd 1],8%,1330 nM,complete inhibition in tumor formation,–,–,–,–,–,–,–,–,–
CN1CCC(CNc2ccc3ncc(C(=O)Nc4cccc(OC(F)(F)F)c4)n3n2)CC1 [Cpd 2],19%,2050 nM,reduced,100%,100%,92%,95%,100%,0.45%,greatly reduced lysosomal staining in the far-red channel,decreasing overall AO mean far-red fluorescence intensity,100%
